Results: patent US10660877B2 (BRISTOL-MYERS SQUIBB COMPANY, priority 2016, dated 2020)
Where two headings read alike, the source gives them in different places.

Assays:
[1] = molecular target: human TLR7 (Homo sapiens (Human), UniProt Q9NYK1); test: TLR7 inhibition reporter assay (HEK-Blue cells, SEAP reporter, gardiquimod stimulation); assay type: cell-based
[2] = molecular target: human TLR9 (Homo sapiens (Human), UniProt Q9NR96); test: TLR9 inhibition reporter assay (HEK-Blue cells, SEAP reporter, ODN2006 stimulation);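 also: compounds tested over 0.05 nM to 50 µM, 22 h incubation, inhibition taken as SEAP signal drop from agonist plus DMSO wells toward a known inhibitor control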
[3] = HEK-Blue cells overexpressing human TLR7, gardiquimod 7.5 μM
[4] = read-out: TLR9 IC50, HEK-Blue cells overexpressing human TLR9, ODN2006 5 nM
[5] = HEK-Blue cells, gardiquimod 7.5 μM
[6] = read-out: TLR9 IC50, HEK-Blue cells, ODN2006 5 nM

human TLR7, sequence (Q9NYK1 27-1049): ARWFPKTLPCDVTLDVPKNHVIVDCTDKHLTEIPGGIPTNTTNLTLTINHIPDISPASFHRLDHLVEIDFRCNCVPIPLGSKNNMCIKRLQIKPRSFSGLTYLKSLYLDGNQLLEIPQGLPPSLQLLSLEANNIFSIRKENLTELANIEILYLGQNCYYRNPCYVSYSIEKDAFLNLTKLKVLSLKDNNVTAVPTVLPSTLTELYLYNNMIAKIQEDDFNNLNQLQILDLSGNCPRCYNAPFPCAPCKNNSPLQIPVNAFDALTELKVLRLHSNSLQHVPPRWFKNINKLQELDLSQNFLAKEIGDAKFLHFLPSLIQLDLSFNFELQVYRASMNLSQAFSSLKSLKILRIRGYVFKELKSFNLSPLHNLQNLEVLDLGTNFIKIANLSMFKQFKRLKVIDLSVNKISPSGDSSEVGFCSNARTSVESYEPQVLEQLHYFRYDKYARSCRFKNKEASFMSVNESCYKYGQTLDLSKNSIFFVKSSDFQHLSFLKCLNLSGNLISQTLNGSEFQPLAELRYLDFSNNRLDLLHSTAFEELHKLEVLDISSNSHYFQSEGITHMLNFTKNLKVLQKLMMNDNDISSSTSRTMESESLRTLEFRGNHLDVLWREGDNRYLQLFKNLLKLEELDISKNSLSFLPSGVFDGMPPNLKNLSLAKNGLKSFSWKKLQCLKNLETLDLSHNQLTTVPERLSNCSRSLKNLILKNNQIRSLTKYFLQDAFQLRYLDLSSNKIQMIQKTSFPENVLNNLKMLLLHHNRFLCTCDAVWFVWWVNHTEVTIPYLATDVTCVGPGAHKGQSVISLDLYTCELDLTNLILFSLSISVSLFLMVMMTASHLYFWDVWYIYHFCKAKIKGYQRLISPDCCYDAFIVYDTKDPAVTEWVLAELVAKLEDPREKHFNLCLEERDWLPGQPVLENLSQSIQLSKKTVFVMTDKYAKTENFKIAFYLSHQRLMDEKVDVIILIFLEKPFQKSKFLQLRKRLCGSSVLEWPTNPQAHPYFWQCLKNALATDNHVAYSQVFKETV
human TLR9, sequence (Q9NR96 26-1032): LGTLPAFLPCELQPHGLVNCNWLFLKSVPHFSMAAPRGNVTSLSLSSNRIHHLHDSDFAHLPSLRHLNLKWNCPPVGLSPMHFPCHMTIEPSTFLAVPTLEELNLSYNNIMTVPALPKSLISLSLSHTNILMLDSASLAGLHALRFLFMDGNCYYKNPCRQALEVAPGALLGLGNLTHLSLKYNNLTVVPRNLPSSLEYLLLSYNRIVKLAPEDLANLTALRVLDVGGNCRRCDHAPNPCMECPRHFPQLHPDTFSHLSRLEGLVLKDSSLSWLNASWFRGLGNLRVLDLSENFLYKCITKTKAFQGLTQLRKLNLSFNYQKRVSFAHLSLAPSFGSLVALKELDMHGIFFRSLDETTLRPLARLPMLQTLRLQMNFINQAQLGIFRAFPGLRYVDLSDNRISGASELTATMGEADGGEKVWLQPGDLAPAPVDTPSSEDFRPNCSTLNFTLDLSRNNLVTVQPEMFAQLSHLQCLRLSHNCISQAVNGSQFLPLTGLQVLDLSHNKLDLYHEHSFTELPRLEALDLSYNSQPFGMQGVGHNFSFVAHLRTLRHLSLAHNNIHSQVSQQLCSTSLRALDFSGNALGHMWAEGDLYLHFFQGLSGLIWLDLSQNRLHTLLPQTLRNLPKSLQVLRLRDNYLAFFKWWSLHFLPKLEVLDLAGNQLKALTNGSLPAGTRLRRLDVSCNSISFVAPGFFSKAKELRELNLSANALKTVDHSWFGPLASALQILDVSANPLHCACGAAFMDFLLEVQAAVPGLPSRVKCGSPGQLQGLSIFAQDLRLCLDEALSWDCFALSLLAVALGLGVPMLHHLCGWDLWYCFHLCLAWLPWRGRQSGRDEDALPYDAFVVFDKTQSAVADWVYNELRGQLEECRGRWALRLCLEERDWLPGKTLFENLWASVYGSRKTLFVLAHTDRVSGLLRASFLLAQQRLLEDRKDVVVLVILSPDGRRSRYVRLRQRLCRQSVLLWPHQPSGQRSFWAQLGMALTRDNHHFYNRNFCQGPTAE

CC(C)c1c(-c2ccncc2)[nH]c2ccc(C3CCNCC3)cc12 [Example 38, 3-isopropyl-5-(piperidin-4-yl)-2-(pyridin-4-yl)-1H-indole]
IC50 [1, 3]: 0.0384 µM | IC50 [2, 4]: 2.15 µM

COc1cc(-c2[nH]c3ccc(C4CCNCC4)cc3c2C(C)C)ccn1 [Example 485, 3-isopropyl-2-(2-methoxypyridin-4-yl)-5-(piperidin-4-yl)-1H-indole]
IC50 [1, 3]: 0.0118 µM | IC50 [2, 4]: 3.04 µM

COc1cc(-c2[nH]c3ccc(C4CCNCC4)cc3c2C(C)C)cc(C)n1 [Example 46, 3-isopropyl-2-(2-methoxy-6-methylpyridin-4-yl)-5-(piperidin-4-yl)-1H-indole]
IC50 [1, 3]: 0.0015 µM | IC50 [2, 4]: 2.35 µM

CCc1c(-c2ccnc(NC)c2)[nH]c2ccc(C3CCN(C4CCN(CC(C)C)CC4)CC3)cc12 [Example 771, 4-(3-ethyl-5-(1′-isobutyl-[1,4′-bipiperidin]-4-yl)-1H-indol-2-yl)-N-methylpyridin-2-amine]
IC50 [1, 3]: 3.37 µM | IC50 [2, 4]: 0.169 µM

CCc1c(-c2ccncc2)[nH]c2ccc(C3CCN(CCNC)CC3)cc12 [Example 808, 2-(4-(3-ethyl-2-(pyridin-4-yl)-1H-indol-5-yl)piperidin-1-yl)-N-methylethan-1-amine]
IC50 [1, 5]: 0.679 µM | IC50 [2, 6]: 0.61 µM

CCc1c(-c2ccnc(C)c2)[nH]c2ccc(C3CCNCC3)c(C)c12 [Example 82, 3-ethyl-4-methyl-2-(2-methylpyridin-4-yl)-5-(piperidin-4-yl)-1H-indole]
IC50 [1, 3]: 0.0073 µM

COc1cc(-c2[nH]c3ccc(C4CCN(C5CCN(C)CC5)CC4)cc3c2C)ccn1 [Example 838, 2-(2-methoxypyridin-4-yl)-3-methyl-5-(1′-methyl-[1,4′-bipiperidin]-4-yl)-1H-indole]
IC50 [1, 5]: 0.581 µM | IC50 [2, 6]: 0.613 µM

Cc1cc(-c2[nH]c3ccc(C4CCN(C(=O)c5ccncc5)CC4)cc3c2C(C)C)cc(C)n1 [Example 113]
IC50 [2, 4]: 15.7 µM

Cc1cc(-c2[nH]c3cc(C)c(C4CCNCC4)cc3c2C(C)C)ccn1 [Example 75, 3-isopropyl-6-methyl-2-(2-methylpyridin-4-yl)-5-(piperidin-4-yl)-1H-indole]
IC50 [1, 3]: 0.005 µM | IC50 [2, 4]: 0.18 µM

Cc1cc(-c2[nH]c3ccc(C4CCNCC4)cc3c2C(C)C)cc(C2CC2)n1 [Example 478, 2-(2-cyclopropyl-6-methylpyridin-4-yl)-3-isopropyl-5-(piperidin-4-yl)-1H-indole]
IC50 [1, 3]: 0.0102 µM | IC50 [2, 4]: 1.33 µM

CCc1c(-c2ccnc(OC(F)F)c2)[nH]c2ccc(C3CCN(C4CCN(CC(C)C)CC4)CC3)cc12 [Example 775, 2-(2-(difluoromethoxy)pyridin-4-yl)-3-ethyl-5-(1′-isobutyl-[1,4′-bipiperidin]-4-yl)-1H-indole]
IC50 [1, 3]: 5.66 µM | IC50 [2, 4]: 0.379 µM

CCc1c(-c2ccncc2)[nH]c2ccc(C3CCN(C4CCN(C)CC4)CC3)cc12 [Example 806, 3-ethyl-5-(1′-methyl-[1,4′-bipiperidin]-4-yl)-2-(pyridin-4-yl)-1H-indole]
IC50 [1, 3]: 1.21 µM | IC50 [2, 4]: 0.365 µM

CC(C)c1c(-c2ccnc(C3CC3)c2)[nH]c2ccc(C3CCNCC3)cc12 [Example 483, 2-(2-cyclopropylpyridin-4-yl)-3-isopropyl-5-(piperidin-4-yl)-1H-indole]
IC50 [1, 3]: 0.0462 µM | IC50 [2, 4]: 1.44 µM

CNCCN1CCC(c2ccc3[nH]c(-c4ccnc(F)c4)c(C)c3c2)CC1 [Example 750, 2-(4-(2-(2-fluoropyridin-4-yl)-3-methyl-1H-indol-5-yl)piperidin-1-yl)-N-methylethan-1-amine]
IC50 [1, 3]: 0.332 µM | IC50 [2, 4]: 0.27 µM

Cc1cc(-c2[nH]c3cc(F)c(C4CCNCC4)cc3c2C(C)C)ccn1 [Example 73, 6-fluoro-3-isopropyl-2-(2-methylpyridin-4-yl)-5-(piperidin-4-yl)-1H-indole]
IC50 [1, 3]: 0.0044 µM | IC50 [2, 4]: 4.72 µM

CCc1c(-c2ccncc2)[nH]c2ccc(C3CCN(Cc4cccn4C)CC3)cc12 [Example 805, 3-ethyl-5-(1-((1-methyl-1H-pyrrol-2-yl)methyl)piperidin-4-yl)-2-(pyridin-4-yl)-1H-indole]
IC50 [1, 3]: 0.61 µM | IC50 [2, 4]: 1.21 µM

CCc1c(-c2ccnc(C)c2)[nH]c2ccc(C3CCNCC3)cc12 [Example 63, 3-ethyl-2-(2-methylpyridin-4-yl)-5-(piperidin-4-yl)-1H-indole]
IC50 [1, 3]: 0.0277 µM | IC50 [2, 4]: 0.329 µM

CCN1CCC(N2CCC(c3ccc4[nH]c(-c5ccncc5)c(C)c4c3)CC2)CC1 [Example 841, 5-(1′-ethyl-[1,4′-bipiperidin]-4-yl)-3-methyl-2-(pyridin-4-yl)-1H-indole]
IC50 [1, 5]: 0.492 µM | IC50 [2, 6]: 0.087 µM

CC(C)c1c(-c2ccnc(C(F)(F)F)c2)[nH]c2ccc(C3CCNCC3)cc12 [Example 6, 3-isopropyl-5-(piperidin-4-yl)-2-(2-(trifluoromethyl)pyridin-4-yl)-1H-indole]
IC50 [1, 3]: 0.0282 µM | IC50 [2, 4]: 1.48 µM

CCN1CCC(N2CCC(c3ccc4[nH]c(-c5ccnc(OC)c5)c(C)c4c3)CC2)CC1 [Example 839, 5-(1′-ethyl-[1,4′-bipiperidin]-4-yl)-2-(2-methoxypyridin-4-yl)-3-methyl-1H-indole]
IC50 [1, 5]: 0.689 µM | IC50 [2, 6]: 4.44 µM

CCc1cc(-c2[nH]c3ccc(C4CCNCC4)cc3c2C(C)C)cc(C)n1 [Example 479, 2-(2-ethyl-6-methylpyridin-4-yl)-3-isopropyl-5-(piperidin-4-yl)-1H-indole]
IC50 [1, 3]: 0.0984 µM | IC50 [2, 4]: 3.4 µM

CCc1c(-c2ccnc(C)c2)[nH]c2cc(F)c(C3CCNCC3)c(F)c12 [Example 83, 3-ethyl-4,6-difluoro-2-(2-methylpyridin-4-yl)-5-(piperidin-4-yl)-1H-indole]
IC50 [1, 3]: 0.011 µM

Cc1c(-c2ccncc2)[nH]c2ccc(C3CCN(C4CCN(C)CC4)CC3)cc12 [Example 842, 3-methyl-5-(1′-methyl-[1,4′-bipiperidin]-4-yl)-2-(pyridin-4-yl)-1H-indole]
IC50 [1, 5]: 0.388 µM | IC50 [2, 6]: 0.093 µM

CNCCN1CCC(c2ccc3[nH]c(-c4cc(OCCOC)ncc4F)c(C)c3c2)CC1 [Example 749, 2-(4-(2-(5-fluoro-2-(2-methoxyethoxy)pyridin-4-yl)-3-methyl-1H-indol-5-yl)piperidin-1-yl)-N-methylethan-1-amine]
IC50 [1, 3]: 4.83 µM | IC50 [2, 4]: 0.64 µM

CNCCN1CCC(c2ccc3[nH]c(-c4ccnc(OC)c4)c(C)c3c2)CC1 [Example 777, 2-(4-(2-(2-methoxypyridin-4-yl)-3-methyl-1H-indol-5-yl)piperidin-1-yl)-N-methylethan-1-amine]
IC50 [1, 3]: 0.515 µM

Cc1cc(-c2[nH]c3ccc(C4CCNCC4)c(F)c3c2C(C)C)cc(C)n1 [Example 77, 2-(2,6-dimethylpyridin-4-yl)-4-fluoro-3-isopropyl-5-(piperidin-4-yl)-1H-indole]
IC50 [1, 3]: 0.0005 µM | IC50 [2, 4]: 0.344 µM

CNCCN1CCC(c2ccc3[nH]c(-c4ccnc(C(F)(F)F)c4)c(C)c3c2)CC1 [Example 747, N-methyl-2-(4-(3-methyl-2-(2-(trifluoromethyl)pyridin-4-yl)-1H-indol-5-yl)piperidin-1-yl)ethan-1-amine]
IC50 [1, 3]: 0.41 µM | IC50 [2, 4]: 0.525 µM

CCc1c(-c2ccnc(OC)c2)[nH]c2ccc(C3CCN(C4CCNCC4)CC3)cc12 [Example 787, 5-([1,4′-bipiperidin]-4-yl)-3-ethyl-2-(2-methoxypyridin-4-yl)-1H-indole]
IC50 [1, 3]: 0.459 µM | IC50 [2, 4]: 0.48 µM

CCc1c(-c2ccnc(OC)c2)[nH]c2ccc(C3CCN(C4CCN(C5CC5)CC4)CC3)cc12 [Example 788, 5-(1′-cyclopropyl-[1,4′-bipiperidin]-4-yl)-3-ethyl-2-(2-methoxypyridin-4-yl)-1H-indole]
IC50 [1, 3]: 0.356 µM | IC50 [2, 4]: 0.611 µM

CNCCN1CCC(c2ccc3[nH]c(-c4ccnc(OC)c4)c(C(C)C)c3c2)CC1 [Example 783, 2-(4-(3-isopropyl-2-(2-methoxypyridin-4-yl)-1H-indol-5-yl)piperidin-1-yl)-N-methylethan-1-amine]
IC50 [1, 3]: 0.0551 µM | IC50 [2, 4]: 1.01 µM

CCc1cc(-c2[nH]c3ccc(C4CCN(CCNC)CC4)cc3c2C)ccn1 [Example 748, 2-(4-(2-(2-ethylpyridin-4-yl)-3-methyl-1H-indol-5-yl)piperidin-1-yl)-N-methylethan-1-amine]
IC50 [1, 3]: 0.495 µM | IC50 [2, 4]: 0.095 µM

CC(C)c1c(-c2ccncc2CO)[nH]c2ccc(C3CCNCC3)cc12 [Example 19, (4-(3-isopropyl-5-(piperidin-4-yl)-1H-indol-2-yl)pyridin-3-yl)methanol]
IC50 [1, 3]: 0.124 µM | IC50 [2, 4]: 1.86 µM

CNCCN1CCC(c2ccc3[nH]c(-c4ccnc(OC)c4)c(CC4CC4)c3c2)CC1 [Example 784, 2-(4-(3-(cyclopropylmethyl)-2-(2-methoxypyridin-4-yl)-1H-indol-5-yl)piperidin-1-yl)-N-methylethan-1-amine]
IC50 [1, 3]: 0.094 µM | IC50 [2, 4]: 0.685 µM

CCc1c(-c2ccncc2)[nH]c2ccc(C3CCN(C4CCN(CC)CC4)CC3)cc12 [Example 809, 3-ethyl-5-(1′-ethyl-[1,4′-bipiperidin]-4-yl)-2-(pyridin-4-yl)-1H-indole]
IC50 [1, 5]: 0.884 µM | IC50 [2, 6]: 0.306 µM

COc1cc(-c2[nH]c3ccc(C4CCN(C5CCN(C(C)C)CC5)CC4)cc3c2C)ccn1 [Example 840, 5-(1′-isopropyl-[1,4′-bipiperidin]-4-yl)-2-(2-methoxypyridin-4-yl)-3-methyl-1H-indole]
IC50 [1, 5]: 0.466 µM | IC50 [2, 6]: 0.379 µM

CNCCN1CCC(c2ccc3[nH]c(-c4ccncc4)c(C)c3c2)CC1 [Example 776, N-methyl-2-(4-(3-methyl-2-(pyridin-4-yl)-1H-indol-5-yl)piperidin-1-yl)ethan-1-amine]
IC50 [1, 3]: 0.545 µM

CCc1c(-c2ccnc(OC(F)F)c2)[nH]c2ccc(C3CCN(C4CCN(CC(C)C)CC4)CC3)cc12 [Example 774, 2-(2-(difluoromethoxy)pyridin-4-yl)-3-ethyl-5-(1′-isobutyl-[1,4′-bipiperidin]-4-yl)-1H-indole]
IC50 [1, 3]: 3.7 µM | IC50 [2, 4]: 0.663 µM
